system: LPS-induced IL-6 release level from THP-1 cells; test: Test of IL-6 release from THP-1 cells (LPS-induced, IL-6 in supernatant detected by CBA); assay type: cell-based; conditions: Homo sapiens, THP-1, 24 h, read-out: Inhibition rate @ 10 uM
Procedure: Test of IL-6 Release from THP-1 Cells
The inhibitory effect of the compound on LPS-induced IL-6 release level from THP-1 cells was evaluated by measuring the level of IL-6 in the cell culture supernatant.
4 ul was taken from each above solution and added to lml of culture solution to make 120 uM, 40 uM, 12 uM, 4 uM. 50 ul per well was taken and added to wells with cells to give final concentrations of 30 uM, 10 uM, 3 uM, and 1 uM, respectively. Dexamethasone was added as a positive drug into an individual cell well with a final concentration of 100 nM. • c) Cell stimulation
The LPS 1 mg/ml solution was diluted to 800 ng/ml with the culture solution and added to the cell culture wells at 50 ul/well. • d) Cell incubation and detection
The cell culture plate was placed in a 37° C. incubator, and the supernatant was collected after culturing for 24 hours. The level of IL-6 in the supernatant was detected by CBA.

Q: With `C=C1CCC2[C@]3(C)CO[C@@H](C4CCCC4)O[C@@H]3CC[C@@]2(C)[C@@H]1CCNc1ccncc1F` (stereo partly drawn) [Compound 345, N-(2-((3R,4aR,6aS,7R,10bR)-3-cyclopentyl-6a,10b-dimethyl-8-decahydromethylene-1H-naphtho[2,1-d][1,3]dioxin-7-yl)ethyl)-3-fluoropyridin-4-amine] as the compound, how does the inhibition at 10 µM read?
A: Its inhibition at 10 µM is 30 to 60%.

Q: For `C=C1CCC2[C@]3(C)CO[C@@H](C4CCCC4)O[C@@H]3CC[C@@]2(C)[C@@H]1CCOC1CCN(C(=O)CN)CC1` (stereo partly drawn) [Compound 373, 2-Amino-1-(4-(2-((3R,4aR,6aS,7R,10bR)-3-cyclopentyl-6a,10b-dimethyl-8-methylenedecahydro-1H-naphtho[2,1-d][1,3]dioxin-7-yl)ethoxy)piperidine-1-yl)acetamide], which inhibition at 10 µM is on record?
A: Its inhibition at 10 µM is 30 to 60%.

Q: For `C=C1CCC2[C@]3(C)CO[C@@H](C4CCCC4)O[C@@H]3CC[C@@]2(C)[C@@H]1CCN(CC(=O)O)CC(=O)O` (stereo partly drawn) [Compound 404, 2,2′-((2-((3R,4aR,6aS,7R,10bR)-3-cyclopentyl-6a,10b-dimethyl-8-methylene-decahydro-1H-naphtho[2,1-d][1,3]dioxin-7-yl)ethyl)azanediyl)diacetic acid], which inhibition at 10 µM is on record?
A: The inhibition at 10 µM was less than 30%.

Q: Which inhibition at 10 µM does the source give for `C=C1CCC2[C@]3(C)CO[C@@H](C4CCCC4)O[C@@H]3CC[C@@]2(C)[C@@H]1CCOc1cncc(C(=O)O)c1` (stereo partly drawn) [Compound 406, 5-(2-((3R,4aR,6aS,7R,10bR)-3-cyclopentyl-6a,10b-dimethyl-8-dihydromethylenedecahydro-1H-naphtho[2,1-d][1,3]dioxin-7-yl)ethoxy)nicotinic acid] here?
A: The inhibition at 10 µM was less than 30%.

same assay, conditions: Homo sapiens; inflammatory factor IL-6 detected by CBA; compound 10 uM; LPS-stimulated THP-1 cells, supernatant after 24 hours; read-out: Inhibition rate @ 10 uM

Q: How did the inhibition at 10 µM turn out when `C=C1CCC2[C@]3(C)CO[C@@H](C4CCCC4)O[C@@H]3CC[C@@]2(C)[C@@H]1CCOc1ccccn1` (stereo partly drawn) [Compound 317, 2-(2-((3R,4aR,6aS,7R,10bR)-3-cyclopentyl-6a,10b-dimethyl-8-dihydromethylenedecahydro-1H-naphtho[2,1-d][1,3]dioxin-7-yl)ethoxy) pyridine] was run?
A: The inhibition at 10 µM was greater than 60%.

Q: `C=C1CCC2[C@]3(C)CO[C@@H](C4CCCC4)O[C@@H]3CC[C@@]2(C)[C@@H]1CCOc1ccnc(C)c1` (stereo partly drawn) [Compound 319, 4-(2-((3R,4aR,6aS,7R,10bR)-3-cyclopentyl-6a,10b-dimethyl-8-dihydromethylenedecahydro-1H-naphtho[2,1-d][1,3]dioxin-7-yl)ethoxy)-2-methylpyridine] was tested. Which inhibition at 10 µM did it give?
A: The inhibition at 10 µM was 30 to 60%.

Q: For `C=C1CCC2[C@]3(C)CO[C@@H](C4CCCC4)O[C@@H]3CC[C@@]2(C)[C@@H]1CCOc1ccnc(N)c1` (stereo partly drawn) [Compound 321, 4-(2-((3R,4aR,6aS,7R,10bR)-3-cyclopentyl-6a,10b-dimethyl-8-dihydromethylenedecahydro-1H-naphtho[2,1-d][1,3]dioxin-7-yl)ethoxy)-pyridin-2-amine], which inhibition at 10 µM is on record?
A: Its inhibition at 10 µM is less than 30%.

Q: `C=C1CCC2[C@]3(C)CO[C@@H](C4CCCC4)O[C@@H]3CC[C@@]2(C)[C@@H]1CCOc1ccncc1N` (stereo partly drawn) [Compound 339] was tested. Which inhibition at 10 µM did it give?
A: The inhibition at 10 µM was less than 30%.

Q: With `C=C1CCC2[C@]3(C)CO[C@@H](C4CCCC4)O[C@@H]3CC[C@@]2(C)[C@@H]1CCOc1ccncc1F` (stereo partly drawn) [Compound 344, 4-(2-((3R,4aR,6aS,7R,10bR)-3-cyclopentyl-6a,10b-dimethyl-8-dihydromethylenedecahydro-1H-naphtho[2,1-d][1,3]dioxin-7-yl)ethoxy)-3-fluoropyridine] as the compound, how does the inhibition at 10 µM read?
A: The inhibition at 10 µM was greater than 60%.

Q: How did the inhibition at 10 µM turn out when `C=C1CCC2[C@]3(C)CO[C@@H](C4CCCC4)O[C@@H]3CC[C@@]2(C)[C@@H]1CCOc1ccncc1C#N` (stereo partly drawn) [Compound 349, 4-(2-((3R,4aR,6aS,7R,10bR)-3-cyclopentyl-6a,10b-dimethyl-8-dihydromethylenedecahydro-1H-naphtho[2,1-d][1,3]dioxin-7-yl)ethoxy)cyanopyridine] was run?
A: Its inhibition at 10 µM is greater than 60%.

Q: How did the inhibition at 10 µM turn out when `C=C1CCC2[C@]3(C)CO[C@@H](C4CCCC4)O[C@@H]3CC[C@@]2(C)[C@@H]1CCOCc1ccncc1` (stereo partly drawn) [Compound 351, 4-((2-((3R,4aR,6aS,7R,10bR)-3-cyclopentyl-6a,10b-dimethyl-8-dihydromethylenedecahydro-1H-naphtho[2,1-d][1,3]dioxin-7-yl)ethoxy)methyl)pyridine] was run?
A: The inhibition at 10 µM was greater than 60%.

Q: For `C=C1CCC2[C@]3(C)CO[C@@H](C4CCCC4)O[C@@H]3CC[C@@]2(C)[C@@H]1CCN1CC(CO)C1` (stereo partly drawn) [Compound 355], which inhibition at 10 µM is on record?
A: The inhibition at 10 µM was less than 30%.

Q: `C=C1CCC2[C@]3(C)CO[C@@H](C4CCCC4)O[C@@H]3CC[C@@]2(C)[C@@H]1CCOc1ccn(C)c(=O)c1` (stereo partly drawn) [Compound 357, 4-(2-((3R,4aR,6aS,7R,10bR)-3-cyclopentyl-6a,10b-dimethyl-8-dihydromethylenedecahydro-1H-naphtho[2,1-d][1,3]dioxin-7-yl)ethoxy)-1-methylpyridin-2(1H)-one] was tested. Which inhibition at 10 µM did it give?
A: Its inhibition at 10 µM is greater than 60%.

Q: How did the inhibition at 10 µM turn out when `C=C1CCC2[C@]3(C)CO[C@@H](C4CCCC4)O[C@@H]3CC[C@@]2(C)[C@@H]1CCOC1CCN(C)CC1` (stereo partly drawn) [Compound 366, 4-(2-((3R,4aR,6aS,7R,10bR)-3-cyclopentyl-6a,10b-dimethyl-8-dihydromethylenedecahydro-1H-naphtho[2,1-d][1,3]dioxin-7-yl)ethoxy)-1-methylpiperidine] was run?
A: Its inhibition at 10 µM is greater than 60%.

Q: How did the inhibition at 10 µM turn out when `C=C1CCC2[C@](C)(CO)[C@H](O)CC[C@@]2(C)[C@@H]1CCOc1ccncc1` (stereo partly drawn) [Compound 385, (1R,2R,4aS,5R)-1-(hydroxymethyl)-1,4a-dimethyl-6-dihydromethylene-5-(2-(pyridin-4-oxy)ethyl) decahydronaphthalene-2-ol] was run?
A: The inhibition at 10 µM was greater than 60%.

Q: With `C=C1CCC2[C@](C)(CO)[C@H](O)CC[C@@]2(C)[C@@H]1CCOC1CCN(C)CC1` (stereo partly drawn) [Compound 386, (1R,2R,4aS,5R)-1-(hydroxymethyl)-1,4a-dimethyl-6-dihydromethylene-5-(2-((1-methylpiperidine-4-yl)oxy)ethyl) decahydronaphthalene-2-ol] as the compound, how does the inhibition at 10 µM read?
A: The inhibition at 10 µM was less than 30%.

Q: How did the inhibition at 10 µM turn out when `C=C1CCC2[C@]3(C)CO[C@@H](C4CCCC4)O[C@@H]3CC[C@@]2(C)[C@@H]1CCOc1ccncc1C(=O)O` (stereo partly drawn) [Compound 397, 4-(2-((3R,4aR,6aS,7R,10bR)-3-cyclopentyl-6a,10b-dimethyl-8-dihydromethylenedecahydro-1H-naphtho[2,1-d][1,3]dioxin-7-yl)ethoxy)nicotinic acid] was run?
A: The inhibition at 10 µM was greater than 60%.

Q: `C=C1CCC2[C@]3(C)CO[C@@H](C4CCCC4)O[C@@H]3CC[C@@]2(C)[C@@H]1CCO` (stereo partly drawn) [Compound 399, 2-((3R,4aR,6aS,7R,10bR)-3-cyclopentyl-6a,10b-dimethyl-8-dihydromethylenedecahydro-1H-naphtho[2,1-d][1,3]dioxin-7-yl)ethanol] was tested. Which inhibition at 10 µM did it give?
A: Its inhibition at 10 µM is greater than 60%.

Q: With `C=C1CCC2[C@]3(C)CO[C@@H](C4CC4)O[C@@H]3CC[C@@]2(C)[C@@H]1CCOc1ccncc1` (stereo partly drawn) [Compound 400, 4-(2-((3R,4aR,6aS,7R,10bR)-3-cyclopropyl-6a,10b-dimethyl-8-dihydromethylenedecahydro-1H-naphtho[2,1-d][1,3]dioxin-7-yl)ethoxy)pyridine] as the compound, how does the inhibition at 10 µM read?
A: The inhibition at 10 µM was greater than 60%.

Q: Which inhibition at 10 µM does the source give for `C=C1CCC2[C@]3(C)COC(C)(C)O[C@@H]3CC[C@@]2(C)[C@@H]1CCOc1ccncc1` (stereo partly drawn) [Compound 402, 4-(2-((4aR,6aS,7R,10bR)-3,3,6a, 10b-tetramethyl-8-dihydromethylenedecahydro-1H-naphtho[2,1-d][1,3]dioxin-7-yl)ethoxy)pyridine] here?
A: Its inhibition at 10 µM is greater than 60%.

Q: Which inhibition at 10 µM does the source give for `C=C1CCC2[C@]3(C)CO[C@@H](C4CCCC4)O[C@@H]3CC[C@@]2(C)[C@@H]1CCNCC(=O)O` (stereo partly drawn) [Compound 403, 2-((2-((3R,4aR,6aS,7R,10bR)-3-cyclopentyl-6a,10b-dimethyl-8-methylenedecahydro-1H-naphtho[2,1-d][1,3]dioxin-7-yl)ethyl)amino)acetic acid] here?
A: The inhibition at 10 µM was less than 30%.

Q: With `C=C1CCC2[C@]3(C)CO[C@@H](CCC(=O)OC)O[C@@H]3CC[C@@]2(C)[C@@H]1CCOc1ccncc1` (stereo partly drawn) [Compound 405] as the compound, how does the inhibition at 10 µM read?
A: Its inhibition at 10 µM is less than 30%.

Q: How did the inhibition at 10 µM turn out when `C=C1CCC2[C@]3(C)CO[C@@H](C4CCCC4)O[C@@H]3CC[C@@]2(C)[C@@H]1CCOc1ccccc1C(=O)O` (stereo partly drawn) [Compound 407, 2-(2-((3R,4aR,6aS,7R,10bR)-3-cyclopentyl-6a,10b-dimethyl-8-dihydromethylenedecahydro-1H-naphtho[2,1-d][1,3]dioxin-7-yl)ethoxy)benzoic acid] was run?
A: The inhibition at 10 µM was greater than 60%.

Q: Which inhibition at 10 µM does the source give for `C=C1CCC2[C@]3(C)CO[C@@H](CCC(=O)O)O[C@@H]3CC[C@@]2(C)[C@@H]1CCOc1ccncc1` (stereo partly drawn) [Compound 408] here?
A: The inhibition at 10 µM was less than 30%.

Q: Which inhibition at 10 µM does the source give for `C=C1CCC2[C@]3(C)CO[C@@H](C4CCCC4)O[C@@H]3CC[C@@]2(C)[C@@H]1CCOc1ccc(F)cc1C(=O)O` (stereo partly drawn) [Compound 409, 2-(2-((3R,4aR,6aS,7R,10bR)-3-cyclopentyl-6a,10b-dimethyl-8-dihydromethylenedecahydro-1H-naphtho[2,1-d][1,3]dioxin-7-yl)ethoxy)-5-fluorobenzoic acid] here?
A: The inhibition at 10 µM was less than 30%.

Q: With `C=C1CCC2[C@]3(C)CO[C@@H](C4CCCC4)O[C@@H]3CC[C@@]2(C)[C@@H]1CCOc1ccnc(C(=O)O)c1` (stereo partly drawn) [Compound 410, 4-(2-((3R,4aR,6aS,7R,10bR)-3-cyclopentyl-6a,10b-dimethyl-8-dihydromethylenedecahydro-1H-naphtho[2,1-d][1,3]dioxin-7-yl)ethoxy)picolinic acid] as the compound, how does the inhibition at 10 µM read?
A: The inhibition at 10 µM was 30 to 60%.

Q: How did the inhibition at 10 µM turn out when `C=C1CCC2[C@]3(C)CO[C@@H](C(C)C)O[C@@H]3CC[C@@]2(C)[C@@H]1CCOc1ccncc1` (stereo partly drawn) [Compound 411, 4-(2-((3R,4aR,6aS,7R,10bR)-3-isopropyl-6a,10b-dimethyl-8-dihydromethylenedecahydro-1H-naphtho[2,1-d][1,3]dioxin-7-yl)ethoxy)pyridine] was run?
A: The inhibition at 10 µM was greater than 60%.

Reference: patent US10717720B2, “Modified compound of andrographolide” (Heilongjiang Zhenbaodao Pharmaceutical Co., Ltd., priority 2015, dated 2020)
